According to patent publication US10683272B2 (THE JOHNS HOPKINS UNIVERSITY, priority 2014, dated 2020):
Where two headings read alike, the source gives them in different places.

Key:
PSMA = PSMA (Homo sapiens, UniProt Q04609); test: fluorescence-based PSMA inhibition assay (Example 1); type: biochemical
[1] = r1 relaxivity of solution phantoms at 9.4 T and 25° C.; type: physicochemical
Description: (§1) When imaged at 9.4 T and 25° C., solution phantoms indicated r1 relaxivities in PBS that vary between 3.0 and 6.2 mM^−1 s^−1 per Gd(III) and between 3.0 and 12.5 mM-1 s-1 per contrast agent (Table 1). As expected, Gd1 has the lowest relaxivity followed by Gd2 and Gd3 at 25° C. To determine selectivity and specificity of the agents, human prostate cancer cells genetically modified to express high amounts of PSMA (PC3 PIP) and the corresponding wild-type, PSMA-non-expressing cells (PC3 flu) were selected as negative control (Banerjee, Angew., 2001). […] Enhancement and T1 measurements by means of MRI of the cell pellets in the presence and absence of 50 μM Gd3 indicated higher enhancement and difference in T1 relaxation rates, ΔR1 between Gd3 treated PIP cells and the control PIP cells as compared to the Gd3-treated flu cells and the control flu control cells, after removal of the Gd3 from the cell system by washing with standard medium (FIG. 4B and FIG. 4C).

[2] = tested on: PSMA+ PC3 PIP and PSMA− PC3 flu cells; test: T1-weighted MR imaging of cell pellets; type: cell-based, human; conditions: PSMA+ PC3 PIP vs PSMA− PC3 flu cell pellets
Description: FIG. 4A through FIG. 4C show T1 contrast enhancement generated by Gd3 in an isogenic human PC3 prostate cancer cell pair, PSMA+ PIP and PSMA− flu cells; (A) Color coded T1 maps of PIP and flu cells. Relaxation rates were determined at 25° C. at 9.4 T; (B) Quantification of T1 changes (ΔT1) in PIP and flu cells (n=4, P<0.05) following treatment with Gd3; (C) cellular uptake of Gd3 in PIP and flu cells.
as §1

PSMA+ PC3 PIP cells [3] = test: ICP-MS analysis of Gd in cell pellets; type: cell-based, human
Excerpt: Thus, the difference between ΔR1 of the PIP cells and that of the flu cells reflects the change due to the specific Gd3 binding to PSMA in the PIP cells.

PSMA+ PC3 PIP cells [4] = test: cell internalization assay (ICP-MS); type: cell-based, human; conditions: for percent of incubated dose internalized: PSMA+ PC3 PIP cells
Description: FIG. 6A and FIG. 6B show the % ID of Gd3 cell surface bound (A) and internalized (B) at 1, 4 and 24 h;
Moreover, slightly higher non-specific uptake was associated with Gd2 in PSMA− PC3 flu cells, which might be related to the lower K1 value of this agent compared to Gd1. As a further check on cellular uptake and internalization, a dual modality Gd monomeric contrast agent labeled with Rhodamine-Red™-X was prepared to confirm the PSMA-mediated internalization of this class of contrast agents (FIG. 5D).
A time-dependent internalization study was performed for Gd3 (FIG. 6A and FIG. 6B) after 1, 4 and 24 h of incubation. […] A similar amount of Gd (˜33-37% ID) was associated with the cell membrane at those same time-points.

PSMA− PC3 flu cells = test: cell viability, MTS assay; type: cell-based, human; conditions: 24 h, up to Gd(III) concentration of 1 mM
Description: Prior to evaluating Gd3 for live mouse imaging, its biocompatibility was examined using a cell proliferation assay. Various concentrations of Gd3 were incubated with PSMA+PC3 PIP and PSMA− PC3 flu cells, for 24 h. […] However, Gd(III) concentrations of >1 mM affected PSMA+PC3 PIP cell viability (FIG. 8). The observed level of PSMA+PC3 PIP cell death may be attributable to high cell internalization of Gd3, and the long incubation time employed (24 h).

PSMA+ PC3 PIP cells [5] = test: cell viability, MTS assay; type: cell-based, human; conditions: 24 h
[6] = tested on: PSMA+ PC3 PIP and PSMA− PC3 flu tumor xenografts; type: in vivo
[7] = 0.05 mmol/Kg i.v., first 20 min after injection

PSMA, sequence (Q04609 whole entry): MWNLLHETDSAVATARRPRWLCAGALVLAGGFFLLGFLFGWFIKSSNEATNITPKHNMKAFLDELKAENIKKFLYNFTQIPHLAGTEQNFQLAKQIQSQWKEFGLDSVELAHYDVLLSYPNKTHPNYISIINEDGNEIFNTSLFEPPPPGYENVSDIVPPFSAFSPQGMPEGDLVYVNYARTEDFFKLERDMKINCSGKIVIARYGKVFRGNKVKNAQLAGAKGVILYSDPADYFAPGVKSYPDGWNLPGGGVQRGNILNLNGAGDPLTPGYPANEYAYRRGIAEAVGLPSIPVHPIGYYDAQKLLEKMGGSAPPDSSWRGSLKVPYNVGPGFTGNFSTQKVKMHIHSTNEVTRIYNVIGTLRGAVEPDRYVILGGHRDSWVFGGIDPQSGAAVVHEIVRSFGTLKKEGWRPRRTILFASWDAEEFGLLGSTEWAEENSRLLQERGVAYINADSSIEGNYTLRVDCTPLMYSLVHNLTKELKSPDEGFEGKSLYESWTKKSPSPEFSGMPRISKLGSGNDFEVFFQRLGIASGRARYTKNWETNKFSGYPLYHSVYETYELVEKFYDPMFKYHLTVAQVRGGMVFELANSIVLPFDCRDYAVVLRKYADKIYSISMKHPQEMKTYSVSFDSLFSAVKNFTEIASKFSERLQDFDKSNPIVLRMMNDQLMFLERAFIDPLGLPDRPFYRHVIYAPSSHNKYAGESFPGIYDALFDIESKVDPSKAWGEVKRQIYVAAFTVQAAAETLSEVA

Substance: (3S,7S)-5,13,20,28-tetraoxo-32-(2,4,6-tris(1-(2-hydroxy-3-(4,7,10-tris(carboxymethyl)-1,4,7,10-tetraazacyclododecan-1-yl)propyl)-1H-1,2,3-triazol-4-yl)phenoxy)-4,6,12,21,27-pentaazadotriacontane-1,3,7,22-tetracarboxylic acid, trigadolinium(III) salt [Gd3]
- Ki (PSMA): 7.19 nM
- r1 relaxivity, ionic (per Gd(III)) ([1]; 9.4 T, 25° C., PBS): 3.3 mM⁻¹ s⁻¹
- r1 relaxivity, molecular (per contrast agent) ([1]; 9.4 T, 25° C., PBS): 9.81 mM⁻¹ s⁻¹
- r1 relaxivity ([1]; column T1 of Table 1): 12.47 mM⁻¹ s⁻¹
- T1-weighted MR contrast of cell pellets [2]: significant MR contrast enhancement in PSMA+PC3 PIP cells
- estimated intracellular Gd(III) concentration (PSMA+ PC3 PIP cells [3]): ~22.82 µM
- amount of Gd associated with the cell membrane (PSMA+ PC3 PIP cells [4]; PSMA+ PC3 PIP cells, 1, 4 and 24 h): 33-37 % ID
- percent of incubated dose internalized (PSMA+ PC3 PIP cells [4]; 1 h incubation): 28.30±0.47 % ID
- percent of incubated dose internalized (PSMA+ PC3 PIP cells [4]; 4 h incubation): 39.92±3.59 % ID
- percent of incubated dose internalized (PSMA+ PC3 PIP cells [4]; 24 h incubation): ~89.69±3.90 % ID
- cell viability (PSMA− PC3 flu cells): ~90%
- Gd(III) concentrations that affected cell viability (PSMA+ PC3 PIP cells [5]): > 1 mM
- contrast enhancement at PIP tumor ([6]; 0.05 mmol/Kg i.v., 40 min post-injection): 36%
- lowering of T1 value, PIP tumor [6, 7]: 0.57 s
- lowering of T1 value, PSMA flu tumor [6, 7]: 0.63 s
- lowering of T1 value, muscle [6, 7]: 0.261 s
- contrast enhancement at PIP tumor ([6]; 0.05 mmol/Kg i.v., until 1.5 h post injection): 30%
- highest contrast enhancement, PSMA− PC3 flu tumors ([6]; 0.06 mmol/kg i.v., 20 min post-injection): ~24%
- enhancement in R1, PSMA+ PC3 PIP tumor ([6]; 0.06 mmol/kg i.v., 190 min after injection): 24%
- ΔR1, PSMA− PC3 flu tumors ([6]; 0.06 mmol/kg i.v., after 40 min): < 20%
- average enhancement in R1 values, PSMA+ PC3 PIP tumor ([6]; 0.06 mmol/kg i.v., first 40 to 60 min): 36%
- minimum T1 value of PSMA+ PC3 PIP tumor ([6]; 0.06 mmol/kg i.v., first 40 to 60 min, n=4): 1,819±76 ms
- enhancement in R1, PSMA+ PC3 PIP tumor ([6]; 0.06 mmol/kg i.v., until 90 min): 29%
